According to patent US20260242745A1, “TISSUE ENGINEERED TUBE USING STEM CELL, AND METHOD FOR PRODUCING SAME” (TOHOKU UNIVERSITY, priority 2023, published 2026):
Bridges are numbered along the chain shown (N, C = ends). Where no end group is shown, it is not given here.

Experiments:
[1] = tested on: artificial blood vessels produced from 201B7 cells (iPS cells derived from healthy subjects); assay: Contraction of artificial blood vessels produced from 201B7 iPS cells in response to physiologically active substances; assay type: cell-based, human; settings: for contraction rate after perfusion culture: 201B7 co-culture, immediately after start of perfusion culture vs third day of perfusion, FIG. 8B; for contraction reaction: artificial blood vessel of smooth muscle cells alone (201B7 vSMC) compared with 201B7 co-culture with endothelial cells, FIG. 8A; for concentration dependence of contraction rate: iPS cells derived from healthy subjects, U46619 0.05 nM to 0.5 nM, endothelin-1 100 nM to 1000 nM, n=5, FIG. 8C; for contraction reaction (same as with U46619): artificial blood vessels produced from 201B7 cells, physiological vasoconstrictors
Method: Next, it was analyzed whether the produced tissue engineered tube reproduces physiological reactions such as contraction and expansion with respect to a physiologically active substance. First, regarding artificial blood vessels produced from 201B7 cells, an artificial blood vessel of only smooth muscle cells (201B7 vSMC) and an artificial blood vessel obtained by seeding and co-culturing blood vessel endothelial cells induced to differentiate from 201B7 in an artificial blood vessel lumen (201B7 co-culture) were produced, and the contraction reaction due to U46619 and KCl was analyzed (FIG. 8A). U46619 is a stable synthetic analog of prostaglandin PGH2 and has an action of inducing blood vessel contraction as a thromboxane A2 receptor agonist. KCl is known to induce blood vessel contraction by membrane potential change. Since an individual difference may occur under a normal contraction amount, U46619 relative is a normalized value obtained by dividing the contraction amount when U46619 is applied by the contraction amount when KCl is applied, which indicates the maximum contraction force. […] NO is a vasodilator and is known to be released from blood vessel endothelial cells. Therefore, it is recognized that the produced artificial blood vessel reproduces the physiological mechanism. […] In the following experiments, artificial blood vessels co-cultured with endothelial cells were used unless otherwise specified.
In order to maintain a more physiological environment, perfusion culture was performed to examine whether the contraction rate was improved (FIG. 8B). Immediately after the start of perfusion culture, U46649 or KCl was applied to an artificial blood vessel produced from 201B7 cells (201B7 co-culture) on the third day of perfusion to analyze the contraction rate. […] It is known that blood vessel tissues change in phenotype, orientation, and the like and mature due to shear stress and blood pressure caused by perfusion culture.
It was analyzed whether the contraction of the artificial blood vessel with respect to U46619 and endothelin-1 depended on the concentration. Artificial blood vessels were produced using iPS cells derived from healthy subjects, and the contraction rates were measured while changing the concentrations of U46619 (0.05 nM to 0.5 nM) and endothelin-1 (100 nM to 1000 nM) (n=5). […] Therefore, it is recognized that the produced artificial blood vessels has have physiological properties.

[2] = tested on: artificial blood vessels produced from iPS cells derived from Werner syndrome patients (WS2-C5 co-culture); assay: Contraction of artificial blood vessels produced from Werner syndrome patient iPS cells compared with those from healthy subjects; assay type: cell-based, human; settings: for relative contraction rate, Werner derived vs WT derived iPSC blood vessels: 200 nM U46619 or 100 nM angiotensin II, contraction amount with 100 mM KCl as 100%, FIG. 9B; for contraction against stimulation, WS2-C5 co-culture vs 201B7 co-culture: n=4, FIG. 9A
Method: Next, reactions to U46619 and KCl were analyzed using artificial blood vessels produced from Werner syndrome patients iPS (FIG. 9A). iPS cells derived from healthy subjects and Werner syndrome patients were induced to differentiate into smooth muscle cells and blood vessel endothelial cells to produce artificial blood vessels as described above, and contraction with respect to U46619 and KCl was analyzed.
In addition to U46619, the relative contraction rate was also determined for angiotensin II (FIG. 9B). The artificial blood vessel was contracted by 200 nM U46619 or 100 nM angiotensin II, and the relative contraction rate was calculated with the contraction amount when 100 mM KCl was applied as 100%. […] Hereinafter, the artificial blood vessels produced using iPS cells derived from healthy subjects may be referred to as WT derived iPSC blood vessels, and the artificial blood vessels produced using iPS cells derived from Werner syndrome patients may be referred to as Werner derived iPSC blood vessels.
Artificial blood vessels were produced from iPS cells derived from healthy subjects and Werner syndrome patients and subjected to perfusion culture, and the contraction by U46619 was analyzed (FIG. 9C). […] This is considered to be caused by a decrease in NO production ability of blood vessel endothelial cells derived from iPS cells of Werner syndrome patients.

CCCCC[C@H](O)/C=C/[C@@H]1[C@@H](C/C=C\CCCC(=O)O)[C@H]2CO[C@@H]1C2 [U46619]
contraction rate after perfusion culture [1]: an improvement in contraction rate due to perfusion culture was observed | contraction reaction [1]: high contraction was observed | concentration dependence of contraction rate [1]: contracted in a concentration-dependent manner | relative contraction rate, Werner derived vs WT derived iPSC blood vessels [2]: exhibited stronger contraction force | contraction against stimulation, WS2-C5 co-culture vs 201B7 co-culture [2]: tended to contract more strongly | contraction after perfusion culture, Werner derived vs WT derived iPSC blood vessels ([2]; perfusion culture, FIG. 9C): an increase in contraction force was observed

angiotensin II (DRVYIHPF; Angiotensin-2; UniProt P01019 25-32, looked up) [physiological vasoconstrictor]
contraction reaction (same as with U46619) [1]: the same contraction reaction occurs | relative contraction rate, Werner derived vs WT derived iPSC blood vessels [2]: exhibited stronger contraction force

endothelin-1 (CSCSSLMDKECVYFCHLDIIW; disulfide 1-15, 3-11; ends not checked; UniProt P05305 53-73, looked up) [physiological vasoconstrictor]
contraction reaction (same as with U46619) [1]: the same contraction reaction occurs | concentration dependence of contraction rate [1]: contracted in a concentration-dependent manner

[Cl-].[K+] [KCl]
contraction rate after perfusion culture [1]: an improvement in contraction rate due to perfusion culture was observed | contraction reaction [1]: high contraction was observed | contraction against stimulation, WS2-C5 co-culture vs 201B7 co-culture [2]: tended to contract more strongly
